From the CheMixHub viscosity set

Experiment: xn = mol fraction of the nth substance listed

O=CN1CCOCC1 + CCc1ccccc1
298.15 K, 101.3 kPa
Settings	viscosity [mPa·s]
x2 = 0.03224	6.848
x2 = 0.06252	6.122
x2 = 0.08602	5.678
x2 = 0.1584	4.43
x2 = 0.2704	3.151
x2 = 0.3512	2.527
x2 = 0.4701	1.841
x2 = 0.5569	1.511
x2 = 0.6373	1.261
x2 = 0.6888	1.137
x2 = 0.7771	0.986
x2 = 0.8636	0.829
x2 = 0.9317	0.713

CCCCCCn1cc[n+](C)c1.[Cl-] + CN1CCCC1=O
100 kPa
Settings	viscosity [mPa·s]
293.15 K, x1 = 0.0917	4.165
293.15 K, x1 = 0.3673	49.65
298.15 K, x1 = 0.1861	8.485
303.15 K, x1 = 0.3673	31.75
308.15 K, x1 = 0.1861	6.465

OCCO + CN1CCCC1=O
101.33 kPa
Settings	viscosity [mPa·s]
298.15 K, x2 = 0.04751	15.44
298.15 K, x2 = 0.09916	13.78
298.15 K, x2 = 0.1991	10.76
298.15 K, x2 = 0.3018	8.242
298.15 K, x2 = 0.4012	6.415
298.15 K, x2 = 0.5073	4.977
298.15 K, x2 = 0.6067	3.952
298.15 K, x2 = 0.7014	3.171
298.15 K, x2 = 0.8018	2.527
298.15 K, x2 = 0.9001	2.066
298.15 K, x2 = 0.9545	1.852
308.15 K, x2 = 0.04799	10.58
308.15 K, x2 = 0.1004	9.465
308.15 K, x2 = 0.2025	7.514
308.15 K, x2 = 0.3042	5.982
308.15 K, x2 = 0.4097	4.697
308.15 K, x2 = 0.5032	3.855
308.15 K, x2 = 0.6042	3.122
308.15 K, x2 = 0.6992	2.566
308.15 K, x2 = 0.7967	2.112
308.15 K, x2 = 0.9027	1.716
308.15 K, x2 = 0.9599	1.543
318.15 K, x2 = 0.04516	7.524
318.15 K, x2 = 0.1031	6.736
318.15 K, x2 = 0.1996	5.567
318.15 K, x2 = 0.2999	4.538
318.15 K, x2 = 0.4047	3.687
318.15 K, x2 = 0.5078	3.015
318.15 K, x2 = 0.6054	2.505
318.15 K, x2 = 0.6952	2.124
318.15 K, x2 = 0.7968	1.771
318.15 K, x2 = 0.8899	1.498
318.15 K, x2 = 0.9612	1.327

CCCCCC(C)O (centres undefined) + CN(C)C=O
viscosity [mPa·s], 101 kPa
Settings	x2 = 0.1086	x2 = 0.153	x2 = 0.24	x2 = 0.3446	x2 = 0.4409	x2 = 0.5599	x2 = 0.6544	x2 = 0.7432	x2 = 0.8428	x2 = 0.9372
298.15 K	4.28	4	3.56	3.15	2.78	2.35	2.01	1.68	1.34	1.03
303.15 K	3.46	3.21	2.85	2.52	2.25	1.92	1.67	1.42	1.17	0.93
308.15 K	2.79	2.6	2.31	2.04	1.83	1.58	1.4	1.22	1.03	0.84
313.15 K	2.32	2.15	1.91	1.69	1.53	1.34	1.2	1.07	0.91	0.77

C=CCN=C=S + CN(C)c1ccccc1
303.15 K, 101 kPa
Settings	viscosity [mPa·s]
x1 = 0.2324	1.032
x1 = 0.4846	0.884
x1 = 0.7377	0.761
